Measured values published in PubChem BioAssay AID258 (DTP/NCI, 2004).
Several values for one entry are separate records, joined by “and”; a condition that tells them apart may be missing. Equal entries are not always repeated. Inconclusive results and toxic doses are left out.

Test system: CD2F1 mice, L1210 leukemia sc, survival T/C
Assay: NCI In Vivo Anticancer Drug Screen. Data for tumor model L1210 Leukemia (subcutaneous) in CD2F1 (CDF1) mice
Settings: endpoint: median survival time, higher = longer survival
In short: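 Compound given to mice bearing transplantable tumor. Survival or tumor size then recorded. Result expressed relative to vehicle-dosed control group as T/C.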

[1] = dose: 50.0 mg/kg/injection, schedule: Q01DX009 (ip), vehicle: saline with Tween-80

CS(=O)(=O)CS(=O)(=O)OCCCl
T/C (dose: 1.5 mg/kg/injection, schedule: Q03HX024 (ip), vehicle: other): 106 % of control
T/C (dose: 3.1 mg/kg/injection, schedule: Q03HX008 (ip), vehicle: other): 109 % of control
T/C (dose: 3.1 mg/kg/injection, schedule: Q03HX024 (ip), vehicle: other): 113 % of control
T/C (dose: 6.2 mg/kg/injection, schedule: Q01DX005 (iv), vehicle: other): 104 % of control
T/C (dose: 6.2 mg/kg/injection, schedule: Q03HX008 (ip), vehicle: other): 115 % of control
T/C (dose: 6.2 mg/kg/injection, schedule: Q03HX024 (ip), vehicle: other): 154 % of control
T/C (dose: 11.8 mg/kg/injection, schedule: Q03HX008 (ip), vehicle: dextrose): 187 % of control
T/C (dose: 12.5 mg/kg/injection, schedule: Q01DX001 (iv), vehicle: other): 106 % of control
T/C (dose: 12.5 mg/kg/injection, schedule: Q01DX005 (iv), vehicle: other): 114 % of control
T/C (dose: 12.5 mg/kg/injection, schedule: Q01DX009 (ip), vehicle: other): 122 % of control
T/C (dose: 12.5 mg/kg/injection, schedule: Q01DX009 (ip), vehicle: saline with Tween-80): 123 % of control
T/C (dose: 12.5 mg/kg/injection, schedule: Q03HX008 (ip), vehicle: other): 155 % of control
T/C (dose: 12.5 mg/kg/injection, schedule: Q03HX024 (ip), vehicle: other): 240 % of control
T/C (dose: 12.5 mg/kg/injection, schedule: Q04DX003 (ip), vehicle: other): 112 % of control
T/C (dose: 16.8 mg/kg/injection, schedule: Q03HX008 (ip), vehicle: dextrose): 217 % of control
T/C (dose: 24.0 mg/kg/injection, schedule: Q01DX009 (ip), vehicle: dextrose): 168 % of control
T/C (dose: 24.0 mg/kg/injection, schedule: Q03HX008 (ip), vehicle: dextrose): 600 % of control
T/C (dose: 25.0 mg/kg/injection, schedule: Q01DX001 (ip), vehicle: other): 111 % of control
T/C (dose: 25.0 mg/kg/injection, schedule: Q01DX001 (iv), vehicle: other): 119 % of control
T/C (dose: 25.0 mg/kg/injection, schedule: Q01DX009 (ip), vehicle: other): 176 % of control
T/C (dose: 25.0 mg/kg/injection, schedule: Q01DX009 (ip), vehicle: saline with Tween-80): 154 % of control
T/C (dose: 25.0 mg/kg/injection, schedule: Q03HX008 (ip), vehicle: other): 618 % of control
T/C (dose: 25.0 mg/kg/injection, schedule: Q03HX024 (ip), vehicle: other): 618 % of control
T/C (dose: 25.0 mg/kg/injection, schedule: Q04DX003 (ip), vehicle: other): 124 % of control
T/C (dose: 34.3 mg/kg/injection, schedule: Q01DX005 (ip), vehicle: dextrose): 183 % of control
T/C (dose: 34.3 mg/kg/injection, schedule: Q01DX009 (ip), vehicle: dextrose): 204 % of control
T/C (dose: 34.3 mg/kg/injection, schedule: Q03HX008 (ip), vehicle: dextrose): 600 % of control
T/C (dose: 49.0 mg/kg/injection, schedule: Q01DX001 (ip), vehicle: dextrose): 153 % of control
T/C (dose: 49.0 mg/kg/injection, schedule: Q01DX002 (ip), vehicle: dextrose): 180 % of control
T/C (dose: 49.0 mg/kg/injection, schedule: Q01DX005 (ip), vehicle: dextrose): 238 % of control
T/C (dose: 49.0 mg/kg/injection, schedule: Q01DX009 (ip), vehicle: dextrose): 270 % of control
T/C (dose: 49.0 mg/kg/injection, schedule: Q03HX008 (ip), vehicle: dextrose): 600 % of control
T/C (dose: 50.0 mg/kg/injection, schedule: Q01DX001 (oral), vehicle: other): 107 % of control
T/C (dose: 50.0 mg/kg/injection, schedule: Q01DX005 (ip), vehicle: other): 207 % of control
T/C (dose: 50.0 mg/kg/injection, schedule: Q01DX005 (iv), vehicle: other): 226 % of control
T/C (dose: 50.0 mg/kg/injection, schedule: Q01DX009 (ip), vehicle: other): 317 % of control
T/C [1]: 242 % of control
T/C (dose: 50.0 mg/kg/injection, schedule: Q01DX009 (oral), vehicle: other): 168 % of control
T/C (dose: 50.0 mg/kg/injection, schedule: Q03HX008 (ip), vehicle: other): 103 % of control
T/C (dose: 50.0 mg/kg/injection, schedule: Q04DX003 (ip), vehicle: other): 209 % of control
T/C (dose: 70.0 mg/kg/injection, schedule: Q01DX001 (ip), vehicle: dextrose): 180 % of control
T/C (dose: 70.0 mg/kg/injection, schedule: Q01DX002 (ip), vehicle: dextrose): 290 % of control
T/C (dose: 70.0 mg/kg/injection, schedule: Q01DX005 (ip), vehicle: dextrose): 600 % of control
T/C (dose: 70.0 mg/kg/injection, schedule: Q01DX009 (ip), vehicle: dextrose): 600 % of control
T/C (dose: 100.0 mg/kg/injection, schedule: Q01DX001 (ip), vehicle: dextrose): 240 % of control
T/C (dose: 100.0 mg/kg/injection, schedule: Q01DX001 (ip), vehicle: other): 618 % of control
T/C (dose: 100.0 mg/kg/injection, schedule: Q01DX001 (iv), vehicle: other): 618 % of control
T/C (dose: 100.0 mg/kg/injection, schedule: Q01DX002 (ip), vehicle: dextrose): 600 % of control
T/C (dose: 100.0 mg/kg/injection, schedule: Q01DX005 (ip), vehicle: dextrose): 600 % of control
T/C (dose: 100.0 mg/kg/injection, schedule: Q01DX005 (ip), vehicle: other): 618 % of control
T/C (dose: 100.0 mg/kg/injection, schedule: Q01DX005 (iv), vehicle: other): 618 % of control
T/C (dose: 100.0 mg/kg/injection, schedule: Q01DX009 (ip), vehicle: dextrose): 600 % of control
T/C (dose: 100.0 mg/kg/injection, schedule: Q01DX009 (ip), vehicle: other): 216 % of control
T/C (dose: 100.0 mg/kg/injection, schedule: Q01DX009 (oral), vehicle: other): 240 % of control
T/C (dose: 100.0 mg/kg/injection, schedule: Q04DX003 (ip), vehicle: other): 353 % of control
T/C (dose: 142.9 mg/kg/injection, schedule: Q01DX001 (ip), vehicle: dextrose): 600 % of control
T/C (dose: 142.9 mg/kg/injection, schedule: Q01DX002 (ip), vehicle: dextrose): 600 % of control
T/C (dose: 142.9 mg/kg/injection, schedule: Q01DX005 (ip), vehicle: dextrose): 101 % of control
T/C (dose: 200.0 mg/kg/injection, schedule: Q01DX001 (oral), vehicle: other): 618 % of control
T/C (dose: 200.0 mg/kg/injection, schedule: Q01DX009 (oral), vehicle: other): 384 % of control

CC(=O)Oc1ccc[nH]c1=O
T/C (dose: 16.7 mg/kg/injection, schedule: Q03HX027 (ip), vehicle: saline with Tween-80): 107 % of control
T/C (dose: 33.0 mg/kg/injection, schedule: Q03HX027 (ip), vehicle: saline with Tween-80): 104 % of control
T/C [1]: 98 % of control
T/C (dose: 66.7 mg/kg/injection, schedule: Q03HX027 (ip), vehicle: saline with Tween-80): 96 % of control
T/C (dose: 100.0 mg/kg/injection, schedule: Q01DX009 (ip), vehicle: saline with Tween-80): 98 % of control
T/C (dose: 133.0 mg/kg/injection, schedule: Q03HX027 (ip), vehicle: saline with Tween-80): 105 % of control
T/C (dose: 200.0 mg/kg/injection, schedule: Q01DX009 (ip), vehicle: saline with Tween-80): 98 % of control
T/C (dose: 266.0 mg/kg/injection, schedule: Q03HX027 (ip), vehicle: saline with Tween-80): 108 % of control
T/C (dose: 800.0 mg/kg/injection, schedule: Q01DX009 (ip), vehicle: saline with Tween-80): 117 % of control

Cc1cc(NCCCCCCCNc2cc(C)nc3cc(N)ccc23)c2ccc(N)cc2n1
T/C (dose: 1.56 mg/kg/injection, schedule: Q01DX009 (ip), vehicle: water): 100 % of control and 104 % of control and 98 % of control
T/C (dose: 3.12 mg/kg/injection, schedule: Q01DX009 (ip), vehicle: water): 109 % of control and 110 % of control and 121 % of control
T/C (dose: 6.25 mg/kg/injection, schedule: Q01DX009 (ip), vehicle: water): 120 % of control
T/C (dose: 12.5 mg/kg/injection, schedule: Q01DX009 (ip), vehicle: water): 156 % of control and 175 % of control
T/C (dose: 25.0 mg/kg/injection, schedule: Q01DX009 (ip), vehicle: water): 120 % of control
